Test results reported in PMC6538953, “Metal Ions Activate the Human Taste Receptor TAS2R7” (Chemical Senses, 2019).

Target: T1, human TAS2R7 E271^7.39 to glutamine mutant (Homo sapiens, UniProt Q9NYW3, E271Q)
T1 construct: signal peptide: first 45 amino acid residues of rat somatostatin receptor 3 (N); expressed in transfected cells; host or cells: HEK293 PEAKrapid (ATCC CRL-2828), transient, co-transfected with Gα16-gust44
T1 sequence (Q9NYW3 1-318 E271Q): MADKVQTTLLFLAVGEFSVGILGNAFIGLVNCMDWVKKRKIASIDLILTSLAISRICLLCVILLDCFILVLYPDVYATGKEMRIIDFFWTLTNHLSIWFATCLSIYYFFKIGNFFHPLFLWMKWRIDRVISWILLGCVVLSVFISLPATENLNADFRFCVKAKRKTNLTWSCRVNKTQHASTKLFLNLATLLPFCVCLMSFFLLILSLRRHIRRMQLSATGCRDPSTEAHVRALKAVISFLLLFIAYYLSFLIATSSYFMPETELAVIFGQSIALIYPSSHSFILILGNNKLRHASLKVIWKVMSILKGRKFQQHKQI
Assay: Calcium mobilization assay, TAS2R7 mutant E271Q
Type: cell-based
Settings: 20 mM metal ions except 0.16 mM Al2(SO4)3; cromolyn 10 mM; Figure 6C
Excerpt: The coding sequences of human TAS2Rs were amplified from human genomic DNA, then subcloned into pcDNA3.1(+) vector, with the herpes simplex virus glycoprotein D epitope (HSV) at the C-terminal and a signal peptide consisting of the first 45 amino acid residues of the rat somatostatin receptor 3 at the N-terminal, essentially as described previously ([Bufe et al. 2002]). Point mutations in human TAS2R7 (NCBI Reference Sequence: NP_076408.1) were constructed by site-directed mutagenesis. All the constructs were confirmed by Sanger sequencing.
Human embryonic kidney 293 (PEAKrapid, ATCC # CRL-2828) cells were cultured in Opti-MEM medium with 4% fetal bovine serum. […] After incubation, cells were washed 2 times with HBSS (including 10 mM HEPES), incubated in the dark for another 30 min, and then washed with assay solution once more before running the assay using a FlexStation III reader. Relative fluorescence units (excitation at 494 nm, emission at 516 nm, and auto cutoff at 515 nm) were read every 2 s for 2 min. Calcium mobilization traces were recorded.
Calcium mobilization traces were raw data obtained from single wells. Changes in fluorescence (ΔF) were calculated as the peak fluorescence minus baseline fluorescence ([Lei et al. 2015]). The calcium mobilization was quantified as the percentage of change (ΔF) relative to baseline (F). […]

O=C(O)c1cc(=O)c2c(OCC(O)COc3cccc4oc(C(=O)O)cc(=O)c34)cccc2o1 [cromolyn, reference compound]
Response of E271 to glutamine mutant receptor: slightly reduced responses
